US10364226B2, “Pyridazinone compounds and uses thereof” (priority 2013, dated 2019)

test system: Influenza strain A549 A/WSN/33 (H1N1); test: Influenza Antiviral Assay; type: cell-based, Influenza A virus; conditions: Influenza A virus, A549, 20 h, neuraminidase fluorescence readout, read-out: % Inhibition

| SMILES | EC50 [µM] |
| --- | --- |
| O=C(O)c1nn(-c2cccc(C(F)(F)F)c2)cc(O)c1=O [Compound 1, 5-hydroxy-4-oxo-1-(3-(trifluoromethyl)phenyl)-1,4-dihydropyridazine-3-carboxylic acid] | > 100 |
| CCN(CC)S(=O)(=O)c1ccc(OC)c(-n2cc(O)c(=O)c(C(=O)O)n2)c1 [Compound 2, 1-(5-(N,N-diethylsulfamoyl)-2-methoxyphenyl)-5-hydroxy-4-oxo-1,4-dihydropyridazine-3-carboxylic acid] | > 100 |
| O=C(O)c1nn(-c2ccc(F)cc2)cc(O)c1=O [Compound 4] | > 100 |
| O=C(O)c1nn(-c2cccc(Oc3ccccc3)c2)cc(O)c1=O [Compound 6] | > 100 |
| O=C(O)c1nn(-c2ccccc2C(F)(F)F)cc(O)c1=O [Compound 7] | > 100 |
| O=C(O)c1nn(-c2ccccc2Oc2ccccc2)cc(O)c1=O [Compound 9] | > 100 |
| O=C(O)c1nn(-c2ccc3c(c2)CCC3)cc(O)c1=O [Compound 10] | > 100 |
| O=C(O)c1nn(-c2ccccc2N2CCCCC2)cc(O)c1=O [Compound 11] | > 100 |
| CS(=O)(=O)Nc1cccc(-n2cc(O)c(=O)c(C(=O)O)n2)c1 [Compound 17] | > 100 |
| O=C(O)c1nn(-c2ccccc2-c2ccccc2)cc(O)c1=O [Compound 18] | > 100 |
| CN(Cc1ccccc1-n1cc(O)c(=O)c(C(=O)O)n1)C1CCCCC1 [Compound 19] | > 100 |
| O=C(O)c1nn(-c2cc(C(F)(F)F)cc(C(F)(F)F)c2)cc(O)c1=O [Compound 20] | > 100 |
| O=C(O)c1nn(-c2ccccc2OC(F)(F)F)cc(O)c1=O [Compound 21] | > 100 |
| CC(NC(=O)c1nn(CC2(c3cccc(C(F)(F)F)c3)CCCC2)cc(O)c1=O)c1ccccc1 (stereo not drawn) [Compound 637] | < 20 |
| CNC(=O)c1nn(Cc2ccccc2-c2ccc(C(C)(C)C)cc2)cc(O)c1=O [Compound 642] | > 100 |
| CNC(=O)c1nn(-c2ccccc2Sc2cccc(Cl)c2)cc(O)c1=O [Compound 643] | > 100 |
| CNC(=O)c1nn(CC(Cc2ccccc2)c2cccc(C(F)(F)F)c2)cc(O)c1=O (stereo not drawn) [Compound 647] | < 20 |
| CNC(=O)c1nn(-c2ccccc2-c2ccc3ccncc3c2)cc(O)c1=O [Compound 651] | 20 to 100 |
| CNC(=O)c1nn(-c2ccccc2-c2cc(C)cc(OCC3CC3)c2)cc(O)c1=O [Compound 652] | > 100 |
| Cc1cc(OCC2CC2)cc(-c2ccccc2-n2cc(O)c(=O)c(C(=O)O)n2)c1 [Compound 653] | > 100 |
| CC(C)(C)c1ccc(-c2ccccc2Cn2cc(O)c(=O)c(C(=O)O)n2)cc1 [Compound 657] | > 100 |
| CNC(=O)c1nn(C(Cc2ccccc2)C(=O)NC)cc(O)c1=O (stereo not drawn) [Compound 667] | > 100 |
| CNC(=O)c1nn(C(Cc2ccccc2)C(=O)Nc2ccccc2)cc(O)c1=O (stereo not drawn) [Compound 668] | > 100 |
| Cc1[nH]c2ccc(CNC(=O)c3nn(CC4(c5cccc(C(F)(F)F)c5)CCCC4)cc(O)c3=O)cc2c1C [Compound 672] | < 20 |

| SMILES | EC50 [µM] |
| --- | --- |
| CNC(=O)c1nn(CC2(n3cc(-c4cncnc4)c4cccnc43)CCCC2)cc(O)c1=O [Compound 673] | > 100 |
| CNC(=O)c1nn(CC2(c3ccc(OC)cc3)CC2)cc(O)c1=O [Compound 675] | > 100 |
| CNC(=O)c1nn(CC2(c3cccc(OC(F)(F)F)c3)CCCC2)cc(O)c1=O [Compound 684] | < 20 |
| CNC(=O)c1nn(CC2(c3ccc(C(C)C)cc3)CC2)cc(O)c1=O [Compound 688] | < 20 |
| CNC(=O)c1nn(Cc2cc(C(F)(F)F)ccc2-c2ccccc2)cc(O)c1=O [Compound 689] | > 100 |
| CNC(=O)c1nn(Cc2cc(C(F)(F)F)ccc2-c2ccc(C(C)(C)C)cc2)cc(O)c1=O [Compound 690] | > 100 |
| O=C(NCc1ccccn1)c1nn(CC2(c3ccccc3)CCCC2)cc(O)c1=O [Compound 691] | < 20 |
| O=C(Nc1ccc(Oc2ccccc2)cc1)c1nn(CC2(c3ccccc3)CCCC2)cc(O)c1=O [Compound 696] | > 100 |
| COc1ccc(NC(=O)c2nn(CC3(c4ccccc4)CCCC3)cc(O)c2=O)cc1 [Compound 697] | > 100 |
| O=C(NCc1ccccc1)c1nn(CC2(c3ccccc3)CCCC2)cc(O)c1=O [Compound 698] | < 20 |
| O=C(NCc1cccnn1)c1nn(CC2(c3ccccc3)CCCC2)cc(O)c1=O [Compound 699] | < 20 |
| CNC(=O)c1nn(CC2(c3cccc(C(C)C)c3)CC2)cc(O)c1=O [Compound 702] | < 20 |
| COc1ccc(NC(=O)c2nn(CC3(c4ccccc4)CCCC3)cc(O)c2=O)cc1OC [Compound 705] | > 100 |
| CC(C)Oc1ccc(NC(=O)c2nn(CC3(c4ccccc4)CCCC3)cc(O)c2=O)cc1 [Compound 706] | > 100 |
| O=C(Nc1ccc(Cl)cc1Cl)c1nn(CC2(c3ccccc3)CCCC2)cc(O)c1=O [Compound 707] | < 20 |
| CNC(=O)c1nn(CC2(c3ccc(-c4ccnn4C)cc3)CC2)cc(O)c1=O [Compound 710] | > 100 |
| CNC(=O)c1nn(CC2(c3cccc(C4CCCCC4)c3)CCCC2)cc(O)c1=O [Compound 711] | < 20 |
| CNC(=O)c1nn(CC2(c3cccc(-c4cn[nH]c4)c3)CC2)cc(O)c1=O [Compound 712] | > 100 |
| CNC(=O)c1nn(CC2(c3cccc(-c4ccnn4C)c3)CC2)cc(O)c1=O [Compound 713] | > 100 |
| CNC(=O)c1nn(CC2(c3cccc(-c4cn[nH]c4)c3)CCCC2)cc(O)c1=O [Compound 714] | > 100 |
| O=C(Nc1ccc(Cl)c(C(F)(F)F)c1)c1nn(CC2(c3ccccc3)CCCC2)cc(O)c1=O [Compound 719] | > 100 |
| CS(=O)(=O)c1ccc(NC(=O)c2nn(CC3(c4ccccc4)CCCC3)cc(O)c2=O)cc1 [Compound 721] | > 100 |
| CNC(=O)c1nn(CC2(c3cccc(-c4ccsc4)c3)CC2)cc(O)c1=O [Compound 724] | > 100 |
| CNC(=O)c1nn(CC2(c3cccc(Oc4ccccc4)c3)CCCC2)cc(O)c1=O [Compound 725] | < 20 |

| SMILES | EC50 [µM] |
| --- | --- |
| CNC(=O)c1nn(CC2(c3cccc(-c4cnc5ccccc5c4)c3)CC2)cc(O)c1=O [Compound 726] | < 20 |
| CNC(=O)c1nn(CC2(c3cccc(-c4cncc(F)c4)c3)CC2)cc(O)c1=O [Compound 727] | > 100 |
| CNC(=O)c1nn(CC2(c3ccc(-c4cn[nH]c4)cc3)CC2)cc(O)c1=O [Compound 728] | > 100 |
| CNC(=O)c1nn(CC2(c3ccc(C4CCCCC4)cc3)CC2)cc(O)c1=O [Compound 729] | > 100 |
| CNC(=O)c1nn(CC2(c3cccc(-c4ccnn4C)c3)CCCC2)cc(O)c1=O [Compound 731] | > 100 |
| CNC(=O)c1nn(CC2(c3cccc(-c4ccncc4)c3)CCCC2)cc(O)c1=O [Compound 732] | > 100 |
| CNC(=O)c1nn(CC2(c3cccc(-c4ccc(OC)nc4)c3)CCCC2)cc(O)c1=O [Compound 734] | > 100 |
| CNC(=O)c1nn(CC2(c3cccc(-c4cnc5ccccc5c4)c3)CCCC2)cc(O)c1=O [Compound 735] | > 100 |
| CNC(=O)c1nn(CC2(c3cccc(-c4cncc(F)c4)c3)CCCC2)cc(O)c1=O [Compound 736] | > 100 |
| CNC(=O)c1nn(CC2(c3ccc(-c4ccc5c(c4)OCO5)cc3)CC2)cc(O)c1=O [Compound 737] | < 20 |
| CNC(=O)c1nn(CC2(c3cccc(-c4ccco4)c3)CC2)cc(O)c1=O [Compound 739] | > 100 |
| CNC(=O)c1nn(CC2(c3cccc(-c4ccoc4)c3)CC2)cc(O)c1=O [Compound 744] | > 100 |
| CNC(=O)c1nn(CC2(c3cccc(-c4ccco4)c3)CCCC2)cc(O)c1=O [Compound 745] | < 20 |
| O=C(NCc1ccc(F)c(Cl)c1)c1nn(CC2(c3ccc(-c4ccccc4)cc3)CCCC2)cc(O)c1=O [Compound 746] | > 100 |
| CNC(=O)c1nn(CC2(c3cccc(-c4cnn(C)c4)c3)CC2)cc(O)c1=O [Compound 748] | > 100 |
| O=C(NCc1ccc(F)c(Cl)c1)c1nn(CC2(c3cccc(Oc4ccccc4)c3)CCCC2)cc(O)c1=O [Compound 751] | > 100 |
| CNC(=O)c1nn(CC2(c3ccc(-c4cncc(F)c4)cc3)CCCC2)cc(O)c1=O [Compound 763] | < 20 |
| CNC(=O)c1nn(CC2(c3cccc(-c4ccn[nH]4)c3)CCCC2)cc(O)c1=O [Compound 767] | < 20 |
| CNC(=O)c1nn(CC2(c3cccc(-c4cnn(C)c4)c3)CCCC2)cc(O)c1=O [Compound 769] | > 100 |
| CNC(=O)c1nn(CC2(c3ccc(-c4ccc(OC)nc4)cc3)CCCC2)cc(O)c1=O [Compound 770] | < 20 |
| CNC(=O)c1nn(CC2(c3ccc(-c4ccnn4C)cc3)CCCC2)cc(O)c1=O [Compound 779] | > 100 |
| CNC(=O)c1nn(CC2(c3ccc(-c4cc[nH]n4)cc3)CCCC2)cc(O)c1=O [Compound 780] | < 20 |
| CNC(=O)c1nn(CC2(c3ccc(-c4ccncc4)cc3)CCCC2)cc(O)c1=O [Compound 781] | < 20 |

biological target: EN PA (Influenza A virus, UniProt P15659); test: EN PA FRET Inhibition Assay; type: biochemical; conditions: read-out: Potency

| SMILES | IC50 [µM] |
| --- | --- |
| O=C(O)c1nn(-c2cccc(C(F)(F)F)c2)cc(O)c1=O [Compound 1, 5-hydroxy-4-oxo-1-(3-(trifluoromethyl)phenyl)-1,4-dihydropyridazine-3-carboxylic acid] | 0.1 to 1 |
| CCN(CC)S(=O)(=O)c1ccc(OC)c(-n2cc(O)c(=O)c(C(=O)O)n2)c1 [Compound 2, 1-(5-(N,N-diethylsulfamoyl)-2-methoxyphenyl)-5-hydroxy-4-oxo-1,4-dihydropyridazine-3-carboxylic acid] | 0.1 to 1 |
| O=C(O)c1nn(-c2ccc(F)cc2)cc(O)c1=O [Compound 4] | 0.1 to 1 |
| O=C(O)c1nn(-c2cccc(Oc3ccccc3)c2)cc(O)c1=O [Compound 6] | 0.1 to 1 |
| O=C(O)c1nn(-c2ccccc2C(F)(F)F)cc(O)c1=O [Compound 7] | 0.1 to 1 |
| O=C(O)c1nn(-c2ccccc2Oc2ccccc2)cc(O)c1=O [Compound 9] | 0.1 to 1 |
| O=C(O)c1nn(-c2ccc3c(c2)CCC3)cc(O)c1=O [Compound 10] | 0.1 to 1 |
| O=C(O)c1nn(-c2ccccc2N2CCCCC2)cc(O)c1=O [Compound 11] | 0.1 to 1 |
| CS(=O)(=O)Nc1cccc(-n2cc(O)c(=O)c(C(=O)O)n2)c1 [Compound 17] | 0.1 to 1 |
| O=C(O)c1nn(-c2ccccc2-c2ccccc2)cc(O)c1=O [Compound 18] | 0.1 to 1 |
| CN(Cc1ccccc1-n1cc(O)c(=O)c(C(=O)O)n1)C1CCCCC1 [Compound 19] | 0.1 to 1 |
| O=C(O)c1nn(-c2cc(C(F)(F)F)cc(C(F)(F)F)c2)cc(O)c1=O [Compound 20] | 0.1 to 1 |
| O=C(O)c1nn(-c2ccccc2OC(F)(F)F)cc(O)c1=O [Compound 21] | < 0.1 |
| CNC(=O)c1nn(CCc2cccc3ccccc23)cc(OC(C)=O)c1=O [Compound 636] | ≥ 1 |
| CNC(=O)c1nn(CC2(c3cccc(Oc4ccccc4)c3)CCCC2)cc(O)c1=O [Compound 701] | < 0.1 |
| O=C(NCc1ccc(F)c(Cl)c1)c1nn(CC2(c3cccnc3)CCCC2)cc(O)c1=O [Compound 802] | < 0.1 |
| O=C(NCc1ccc(F)c(Cl)c1)c1nn(CC2(c3ccc(Cl)cc3)CCCC2)cc(O)c1=O [Compound 803] | < 0.1 |
| O=C(NCc1ccccc1)c1nn(CC2(c3ccc(Cl)cc3)CCCC2)cc(O)c1=O [Compound 804] | < 0.1 |
| O=C(NCc1ccc(F)c(Cl)c1)c1nn(CC2(c3ccc(F)c(F)c3)CCCC2)cc(O)c1=O [Compound 805] | < 0.1 |
